These results are taken from paper PMC3867265 (Science signaling, 2013).

T1: mouse MT2 receptor (Mus musculus, UniProt Q8CIQ6)
T1 sequence (Q8CIQ6 1-364): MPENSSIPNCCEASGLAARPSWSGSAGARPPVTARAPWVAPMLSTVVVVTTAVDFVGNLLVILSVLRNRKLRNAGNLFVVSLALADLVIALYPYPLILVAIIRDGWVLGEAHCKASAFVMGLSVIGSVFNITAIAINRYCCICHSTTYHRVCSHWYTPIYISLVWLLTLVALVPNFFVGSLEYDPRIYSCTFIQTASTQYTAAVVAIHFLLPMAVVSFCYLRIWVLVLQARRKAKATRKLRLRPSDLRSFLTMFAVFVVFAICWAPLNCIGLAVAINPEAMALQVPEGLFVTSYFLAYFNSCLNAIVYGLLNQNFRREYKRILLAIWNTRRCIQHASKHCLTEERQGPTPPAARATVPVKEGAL

T2: MT2 (Mus musculus, UniProt Q8CIQ6)
T2 sequence (Q8CIQ6 1-364): T1 sequence (Q8CIQ6 1-364)

B1: mouse MT2-P95L mutant, Rluc8 and YFP fusion proteins (receptor, UniProt Q8CIQ6 1-364, looked up)
chain: T1 sequence (Q8CIQ6 1-364) with P95L
B2: mouse melatonin receptor type 2 (MT2), Rluc8 and YFP fusion proteins (receptor, UniProt Q8CIQ6 1-364, looked up)
chain: T1 sequence (Q8CIQ6 1-364)
B3: mouse melatonin receptor type 1 (MT1), Rluc8 and YFP fusion proteins (receptor, UniProt Q61184 1-353, looked up)
chain: MKGNVSELLNATQQAPGGGEGGRPRPSWLASTLAFILIFTIVVDILGNLLVILSVYRNKKLRNSGNIFVVSLAVADLVVAVYPYPLVLTSILNNGWNLGYLHCQVSAFLMGLSVIGSIFNITGIAMNRYCYICHSLKYDKIYSNKNSLCYVFLIWMLTLIAIMPNLQTGTLQYDPRIYSCTFTQSVSSAYTIAVVVFHFIVPMIIVIFCYLRIWVLVLQVRRRVKPDNKPKLKPQDFRNFVTMFVVFVLFAICWAPLNLIGLIVASDPATMVPRIPEWLFVASYYLAYFNSCLNAIIYGLLNQNFRKEYKKIIVSLCTAKMFFVESSNEEADKIKCKPSPLIPNNNLIKVDSV

Positions count from the first letter of the chain named. Names and notes keep the numbering of the source. “Also recorded” adds a separate entry of the source.

One data set has as its system mouse photoreceptors. Kind of data set: Photoreceptor response. The data set is classed as in vivo. The note with it: for mimicking of the photoreceptor response to melatonin (a-wave at 7 ms): intravitreal injection of the agent; for effect on the melatonin-induced photoreceptor response (a-wave at 7 ms): intravitreal injection of the agent plus melatonin.
For data set [1], the system named is C3H-f+/+ mice. Kind of data set: Scotopic. The data set is classed as in vivo, mouse. The note with it: for effect on the melatonin-induced increase in the amplitude of the a- and b-wave: intravitreal antagonist, then melatonin i.p. 1 mg/kg; for amplitude of the a- and b-wave, compound alone: intravitreal injection alone, no melatonin.
Data set [2] concerns the target T3, MT1 (Mus musculus, UniProt Q61184). The experiment in a line: cell-based.
Data set [3] deals with T4, MT1/MT2 heteromers (Mus musculus, UniProt Q61184+Q8CIQ6). Kind of data set: cell-based.
Another data set has as its target mouse MT1 receptor (Mus musculus, UniProt Q61184). Kind of data set: Competition of 2-[125I]iodo-melatonin binding at mouse MT1. The note with it: mouse MT1, membranes of HEK293 cells.
The next data set addresses T1, mouse MT2 receptor. Kind of data set: Competition of 2-[125I]iodo-melatonin binding at mouse MT2. Particulars: mouse MT2, membranes of HEK293 cells.
Data set [4] deals with T3, MT1. Particulars: HEK293T cells expressing MT1 alone.
For data set [5], the system named is C3H-f+/+ mice. The note with it: exogenous administration during the day, wild-type mice; cited from earlier work.
The target in data set [6] is T3, MT1. The note with it: HEK293T cells expressing MT1 alone, compared with MT1/MT2 heteromers.
A further data set deals with T2, MT2. The experiment in a line: Inositol phosphate production, HEK293T cells expressing MT2 alone. The data set is classed as cell-based.
Data set [7] concerns the target T4, MT1/MT2 heteromers.
The next data set relates to MT2-/- mice. Kind of data set: Scotopic. Format: in vivo, mouse. Particulars: i.p. 1 mg/kg at ZT6, 1 h dark adaptation.
A further data set addresses MT1 and MT2 receptors (Mus musculus, UniProt Q61184+Q8CIQ6).
The target in data set [8] is wild-type MT1 receptor with the inactive MT2-P95L mutant (Mus musculus, UniProt Q61184). Particulars: cells coexpressing wild-type MT1 with inactive MT2-P95L mutant.
Data set [9] concerns the target B2. Kind of data set: FRET or BRET. For orientation: BRET reads energy transfer from a luciferase to a nearby fluorophore.
The target in data set [10] is B3. Kind of data set: FRET or BRET.
The data set “FRET or BRET” deals with the molecule itself. Kind of data set: FRET or BRET.

Chain of wild-type MT1 receptor with the inactive MT2-P95L mutant (Q8CIQ6 whole entry P95L partner, one chain of several): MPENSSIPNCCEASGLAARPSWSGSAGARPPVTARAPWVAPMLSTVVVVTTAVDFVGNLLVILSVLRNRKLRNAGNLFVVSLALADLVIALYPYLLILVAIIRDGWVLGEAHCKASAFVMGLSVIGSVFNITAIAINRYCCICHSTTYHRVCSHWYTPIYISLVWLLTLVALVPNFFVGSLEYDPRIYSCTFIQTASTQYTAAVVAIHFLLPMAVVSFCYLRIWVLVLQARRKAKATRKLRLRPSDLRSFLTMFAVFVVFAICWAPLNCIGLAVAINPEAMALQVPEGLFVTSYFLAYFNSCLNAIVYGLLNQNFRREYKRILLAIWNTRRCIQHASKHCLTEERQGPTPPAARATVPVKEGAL

Take `Cl.Cl.O=S(=O)(NCCNC/C=C/c1ccc(Br)cc1)c1cccc2cnccc12` [H89, H-89 dihydrochloride hydrate]: in the data set on mouse photoreceptors, the “mimicking of the photoreceptor response to melatonin (a-wave at 7 ms)” value is “did not mimic” and the “effect on the melatonin-induced photoreceptor response (a-wave at 7 ms)” value (shortened to “effect … (a-wave at 7 ms)”) is given as “did not affect”.

As to `CC(=O)NCCc1c(Cc2ccccc2)[nH]c2ccccc12` [luzindole], in the data set on C3H-f+/+ mice [1], the “effect on the melatonin-induced increase in the amplitude of the a- and b-wave” value is “prevented the increase”; the “amplitude of the a- and b-wave, compound alone” value is listed as “did not produce any significant changes”.

As to `Cl.NC(CSSCC(N)C(=O)N1CCn2cc(-c3ccccc3)nc2C1CC1CCCCC1)C(=O)N1CCn2cc(-c3ccccc3)nc2C1CC1CCCCC1` (stereo not drawn) [BIM 46187, 7-[2-amino-1-oxo-3-thio-propyl]-8-cyclohexylmethyl-2-phenyl-5,6,7,8-tetrahydro-i midazo-[1,2a]-pyrazine dimer, hydrochloride], in the data set with mouse photoreceptors, the “effect … (a-wave at 7 ms)” value is on record as “inhibited”.

Regarding `CCC(=O)N[C@@H]1Cc2ccccc2[C@H](c2ccccc2)C1` (relative stereo) [4P-PDOT, cis-4-Phenyl-2-propionamidotetralin], in the data set with C3H-f+/+ mice [1], the “effect on the melatonin-induced increase in the amplitude of the a- and b-wave” value is given as “prevented the increase”. Also, the “amplitude of the a- and b-wave, compound alone” value in the data set with C3H-f+/+ mice [1] is “did not produce any significant changes”. In addition, the concentration for half-maximal inhibition (IC50) (as a rule, the concentration that inhibits the measured activity by half) on MT1 [2] stood at 5.8 ± 7.7 nM; at MT1/MT2 heteromers [3] it was 4 ± 3.5 nM.

On to `CCCCCCCCCCCCCC(=O)O[C@@H]1[C@@H](C)[C@@]2(O)[C@@H](C=C(CO)C[C@]3(O)C(=O)C(C)=C[C@@H]23)[C@@H]2C(C)(C)[C@]12OC(C)=O` [PMA, Phorbol 12-myristate 13-acetate], for which, in the data set on mouse photoreceptors, the “mimicking of the photoreceptor response to melatonin (a-wave at 7 ms)” value is “mimicked” and the “effect … (a-wave at 7 ms)” value is “significantly reduced”.

Turning to `CCCC(=O)NCCc1c2n(c3ccc(OC)cc13)Cc1ccccc1-2` [IIK7], the “amplitude of the a- or b-wave” value in the data set with C3H-f+/+ mice [1] (intravitreal 50 nM (MT2-selective concentration), C3H-f+/+ mice) is recorded as “did not increase”. Further, the “amplitude of the a- and b-wave” value with C3H-f+/+ mice [1] (intravitreal 5 μM (activates MT1 and MT2), C3H-f+/+ mice) is “significantly increased”. Further, the inhibitory constant (Ki) (in general, the equilibrium dissociation constant of an inhibitor or competing ligand from its target) turned out to be 73 ± 23 nM on mouse MT1 receptor and 0.052 ± 0.015 nM on mouse MT2 receptor.

Take `Nc1ncnc2c1nc(Br)n2[C@@H]1O[C@@H]2COP(=O)(O)O[C@H]2[C@H]1O` [8-br-cAMP, 8-bromoadenosine 3′,5′-cyclic monophosphate]: the “effect … (a-wave at 7 ms)” value in the data set with mouse photoreceptors was “had no effect”.

Consider `COc1ccc2[nH]cc(CCNC(C)=O)c2c1` [melatonin], for which the “inositol phosphate production, result in words” value is “inactive; also recorded: only at supra-physiological melatonin amount” on MT1 [4], “unable to modulate this pathway” on MT2 (HEK293T cells expressing MT2 alone) and “completely abolished” in [8]. Also, the “amplitudes of a- and b-waves of the scotopic ERG” value in the data set on C3H-f+/+ mice [5] is “increases the amplitudes”. Also, the PKC activity entry is given as “less potently” at MT1 [6] and “dose-dependently increased” at MT1/MT2 heteromers [7] (HEK293T cells expressing MT1/MT2 heteromers, increasing concentrations). For the same molecule, the response on MT2 was half-maximal at 51 nM (EC50). Moreover, on MT1/MT2 heteromers [7] (MT1/MT2 heteromers plus dominant negative MT2-P95L mutant, 100 nM melatonin), the “PKC activity with coexpressed MT2-P95L” value was “potently inhibited”. Further, in the data set with MT2-/- mice, the “changes in the dark-adapted ERG” value is listed as “did not produce any changes”. The “inhibition of cAMP production” value on MT1 and MT2 receptors was “not impaired but rather improved”. Further, the “photoreceptor response (a-wave at 7 ms)” value in the data set with mouse photoreceptors (exogenous melatonin, ZT 6) is “significantly increased”.

Take `CN1CCCC1CCn1cc(C2=C(c3c[nH]c4ccccc34)C(=O)NC2=O)c2ccccc21` (stereo not drawn) [Bisl, Bisindolylmaleimide II]: the “block of the effect of exogenous melatonin on photoreceptors” value with mouse photoreceptors (intravitreal PKC inhibitor plus melatonin) was “about 40%”.

Turning to B1, the values for the BRET50 (in data set [9]; in data set [10]; in “FRET or BRET”) were 1.52, 3.48 and 2.61, respectively.

Molecule B2 displayed a BRET50 in data set [10] of 1.67.

In turn, B3 displayed a BRET50 in the data set “FRET or BRET” of 0.71.
